Measured values from patent publication US7705188B2 (Arizona Board of Regents, a body corporate of the State of …, priority 2002, dated 2010).
In brackets after ≈: the same amount, converted by molar mass. Like-named read-outs stand apart in the source and are kept apart here.

Assays:
Micrococcus luteus = test: Antimicrobial broth microdilution, MIC; assay type: cell-based; details: for MIC: read-out: Minimum inhibitory concentration
Description: (§1) Stilbene production has been correlated with the resistance of grape leaves to fungal infection.

Streptococcus pneumoniae = test: Antimicrobial broth microdilution, MIC; assay type: cell-based; details: for MIC: read-out: Minimum inhibitory concentration
Description: as §1

Neisseria gonorrhoeae = test: Antimicrobial broth microdilution, MIC; assay type: cell-based; details: Neisseria gonorrhoeae; for MIC: read-out: Minimum inhibitory concentration
Description: as §1

Enterococcus faecalis = test: Antimicrobial broth microdilution, MIC; assay type: cell-based; details: for MIC: read-out: Minimum inhibitory concentration
Description: as §1

Enterobacter cloacae = test: Antimicrobial broth microdilution, MIC; assay type: cell-based; details: for MIC: read-out: Minimum inhibitory concentration
Description: as §1

Cryptococcus neoformans = test: Antimicrobial broth microdilution, MIC; assay type: cell-based; details: for MIC: read-out: Minimum inhibitory concentration
Description: as §1

[1] = system: Stenotrophomonas maltophilia; test: Antimicrobial broth microdilution, MIC; assay type: cell-based; details: for MIC: read-out: Minimum inhibitory concentration
Description: as §1

Escherichla coli = test: Antimicrobial broth microdilution, MIC; assay type: cell-based; details: Escherichla coli; for MIC: read-out: Minimum inhibitory concentration
Description: as §1

Candida albicans = test: Antimicrobial broth microdilution, MIC; assay type: cell-based; details: for MIC: read-out: Minimum inhibitory concentration
Description: as §1

Staphylococcus aureus = test: Antimicrobial broth microdilution, MIC; assay type: cell-based; details: for MIC: read-out: Minimum inhibitory concentration
Description: as §1

NCI-H460 = test: Cytotoxicity, lung-NSC NCI-H460; assay type: cell-based, human; details: Homo sapiens, NCI-H460, NCI-H460; read-out: Lung-NSC NCI-H460 GI50
BXPC-3 = test: Cytotoxicity, pancreas-a BXPC-3; assay type: cell-based, human; details: Homo sapiens, BXPC-3, BXPC-3
SF-268 = test: Cytotoxicity, CNS SF-268; assay type: cell-based, human; details: Homo sapiens, SF-268, SF-268; read-out: CNS SF-268 GI50
MCF-7 = test: Cytotoxicity, breast MCF-7; assay type: cell-based, human; details: for GI50: Homo sapiens, MCF7
DU-145 = test: Cytotoxicity, prostate DU-145; assay type: cell-based, human; details: Homo sapiens, DU-145, DU-145
KM201.2 = test: Cytotoxicity, colon KM201.2; assay type: cell-based, human; details: Homo sapiens, KM201.2; read-out: Colon KM201.2 GI50
[2] = system: P-388 and human tumor cell lines; test: Cytotoxicity, summary over P-388 and human tumor cell lines; assay type: cell-based

COc1ccc(C(=O)c2cc(O)cc(O)c2)cc1 [Compound 16e] was tested, and the Minimum inhibitory concentration (Micrococcus luteus) was “* (no inhibition at 64 μg/ml)”, the Minimum inhibitory concentration (Streptococcus pneumoniae) was “* (no inhibition at 64 μg/ml)” and the Minimum inhibitory concentration (Neisseria gonorrhoeae) was “* (no inhibition at 64 μg/ml)”. The Minimum inhibitory concentration (Enterococcus faecalis; first line (r12)) was “* (no inhibition at 64 μg/ml)”, the Minimum inhibitory concentration (Enterococcus faecalis; second line (r15)) was “* (no inhibition at 64 μg/ml)” and the Minimum inhibitory concentration (Enterobacter cloacae) was “* (no inhibition at 64 μg/ml)”. For the same compound, the Minimum inhibitory concentration (Cryptococcus neoformans) was “* (no inhibition at 64 μg/ml)”, the Minimum inhibitory concentration [1] was “* (no inhibition at 64 μg/ml)” and the Minimum inhibitory concentration (Escherichla coli) was “* (no inhibition at 64 μg/ml)”. For the same compound, the Minimum inhibitory concentration (Candida albicans) was “* (no inhibition at 64 μg/ml)” and the Minimum inhibitory concentration (Staphylococcus aureus) was “* (no inhibition at 64 μg/ml)”.
Work on O=C(c1ccc(O)cc1)c1cc(O)cc(O)c1 [Compound 16g, 3,4′,5-trihydroxybenzophenone] yielded a GI50 (NCI-H460) of 25 µg/mL (≈ 109 µM), a GI50 (BXPC-3) of 20.5 µg/mL (≈ 89 µM) and a GI50 (SF-268) of 22.3 µg/mL (≈ 96.9 µM). The MIC (Micrococcus luteus) was over 64 µg/mL, the MIC (Streptococcus pneumoniae) was 64 µg/mL (≈ 278 µM) and the MIC (Neisseria gonorrhoeae) was over 64 µg/mL. For the same compound, the MIC (Enterococcus faecalis; first line (r12)) was over 64 µg/mL, the MIC (Enterococcus faecalis; second line (r15)) was over 64 µg/mL and the MIC (Enterobacter cloacae) was over 64 µg/mL. For the same compound, the MIC (Cryptococcus neoformans) was over 64 µg/mL, the MIC [1] was over 64 µg/mL and the MIC (Escherichla coli) was over 64 µg/mL. For the same compound, the MIC (Candida albicans) was over 64 µg/mL, the MIC (Staphylococcus aureus) was over 64 µg/mL and the GI50 (MCF-7) was 30.6 µg/mL (≈ 133 µM). For the same compound, the GI50 (DU-145) was 15 µg/mL (≈ 65.2 µM) and the GI50 (KM201.2) was 24.5 µg/mL (≈ 106 µM).
Compound COc1cc(O)cc(C(=O)c2ccc(O)cc2)c1 [Compound 16i, 3,4′-dihydroxy-5-methoxybenzophenone] has a GI50 (NCI-H460) of 12.1 µg/mL (≈ 49.5 µM), a GI50 (BXPC-3) of 21.7 µg/mL (≈ 88.8 µM) and a GI50 (SF-268) of 26.4 µg/mL (≈ 108 µM). The MIC (Micrococcus luteus) was over 64 µg/mL, the MIC (Streptococcus pneumoniae) was 64 µg/mL (≈ 262 µM) and the MIC (Neisseria gonorrhoeae) was 32 µg/mL (≈ 131 µM). It also gave an MIC (Enterococcus faecalis; first line (r12)) of over 64 µg/mL, an MIC (Enterococcus faecalis; second line (r15)) of over 64 µg/mL and an MIC (Enterobacter cloacae) of over 64 µg/mL. The MIC (Cryptococcus neoformans) was over 64 µg/mL, the MIC [1] was over 64 µg/mL and the MIC (Escherichla coli) was over 64 µg/mL. The MIC (Candida albicans) was over 64 µg/mL, the MIC (Staphylococcus aureus) was over 64 µg/mL and the GI50 (MCF-7) was 26.8 µg/mL (≈ 110 µM). The GI50 (DU-145) was 16.5 µg/mL (≈ 67.6 µM) and the GI50 (KM201.2) was 31.6 µg/mL (≈ 129 µM).
COc1ccc(C(=O)c2cc(O)cc(OC)c2)cc1 [Compound 16k, 4′,5-dimethoxy-3-hydroxybenzophenone] gave a GI50 (NCI-H460) of 10.3 µg/mL (≈ 39.9 µM), a GI50 (BXPC-3) of 15 µg/mL (≈ 58.1 µM) and a GI50 (SF-268) of 13.9 µg/mL (≈ 53.8 µM). It also gave an MIC (Micrococcus luteus) of over 64 µg/mL, an MIC (Streptococcus pneumoniae) of 32 to 64 µg/mL (≈ 124 to 248 µM) and an MIC (Neisseria gonorrhoeae) of 16 to 32 µg/mL (≈ 61.9 to 124 µM). It also gave an MIC (Enterococcus faecalis; first line (r12)) of over 64 µg/mL, an MIC (Enterococcus faecalis; second line (r15)) of over 64 µg/mL and an MIC (Enterobacter cloacae) of over 64 µg/mL. For the same compound, the MIC (Cryptococcus neoformans) was 64 µg/mL (≈ 248 µM), the MIC [1] was over 64 µg/mL and the MIC (Escherichla coli) was over 64 µg/mL. It also gave an MIC (Candida albicans) of over 64 µg/mL, an MIC (Staphylococcus aureus) of over 64 µg/mL and a GI50 (MCF-7) of 14.2 µg/mL (≈ 55 µM). It also gave a GI50 (DU-145) of 12.6 µg/mL (≈ 48.8 µM) and a GI50 (KM201.2) of 16.2 µg/mL (≈ 62.7 µM).
For “Sodium Resverastatin Phosphate [Compound 14n]”, the “Cytotoxicity against cancer cell lines, comparison in words” value [2] was “essentially identical to 14c” and the “Breast MCF-7 GI50” value (MCF-7; MCF-7) was 0.73 µg/mL.
